pIC50: −log10 of the molar value.
Assays:
apoB-100 = assay: Inhibition of apoB-100 secretion by primary human hepatocytes (35S-methionine labelling, SDS PAGE, Phosphorimager); type: cell-based; details: 8 hours incubation, tested from 1 μM to 1.6 nM, secretion of radiolabeled apoB-100, untreated cells as controls
Procedure: The ability of the compounds of the invention to inhibit the production of apoB-100 by human hepatocytes in vitro is determined using primary human hepatocytes as a model system. The specificity of the compounds of the invention is established by comparing the effects on apoB-100, apoprotein A-1, and fibrinogen production. A specificity of at least 100 is preferred.
Primary human hepatocytes were seeded at 50 000 cells/well in 96 well plates. After an overnight adhesion phase, cells were incubated with compounds for 8 hours in RPMI medium containing 1% FCS, 4 μg/ml insulin, 100 nM dexamethasone and 50 μCi/ml ^35S-methionine. […] Production of radiolabeled apoB-100 and apoA-1 (used as a selectivity control) was quantified by analysis of supermatants using SDS AGE and exposure of gels onto Phosphorimager screens. Inhibition of apo-100 and apoA-1 secretion by compounds was calculated taking untreated cells as controls, and IC50 of each compound was determined on both apoproteins.

| SMILES | pIC50 (apoB-100) | melting point | pIC50 (apoB-100; Homo sapiens, Hepatocyte, 8 h) |
| --- | --- | --- | --- |
| Cc1ccc(C(=O)Nc2ccc(N3CCN(Cc4ccc[nH]4)CC3)cc2)c(-c2ccc(C(C)C)cc2)c1 [Example 63, 4′-Isopropyl-5-methyl-biphenyl-2-carboxylic Acid [4-(4-(1H-pyrrol-2-ylmethyl)-25 piperazin-1-yl)-phenyl]-amide] | 7.70 |  |  |
| Cc1cccc(C(=O)Nc2ccc(N3CCN(Cc4cccc(C#N)c4)CC3)cc2)c1-c1ccc(C(C)C)cc1 [Example 4] | 7.92 |  |  |
| Cc1ccc(C(=O)Nc2ccc(N3CCN(Cc4cccc(C#N)c4)CC3)cc2)c(-c2ccc(C(C)C)cc2)c1 [Example 2, 4′-Isopropyl-5-methyl-biphenyl-2-carboxylic Acid [4-[4-(3-cyano-benzyl)-piperazin-1-yl]-phenyl]-amide] |  | 167 to 169 °C | 7.74 |
| Cc1ccc(C(=O)Nc2ccc(N3CCN(Cc4ccc[nH]4)CC3)cc2)c(-c2ccc(C(F)(F)F)cc2)c1 [Example 64, 5-Methyl-4′-trifluoromethyl-biphenyl-2-carboxylic Acid [4-(4-(1H-pyrrol-2-ylmethyl)-piperazin-1-yl)-phenyl]-amide] |  | 196 to 198 °C | 7.72 |
| Cc1ccc(C(=O)Nc2ccc(N3CCN(Cc4cccc(-c5nc(C)no5)c4)CC3)cc2)c(-c2ccc(C(C)C)cc2)c1 [Example 6] | 7.74 |  |  |
| COc1cccc(C(=O)Nc2ccc(N3CCN(Cc4cccc(C#N)c4)CC3)cc2)c1-c1ccc(C(C)C)cc1 [Example 3, 4′-Isopropyl-6-methoxy-biphenyl-2-carboxylic Acid [4-[4-(3-cyano-benzyl)-piperazin-1-yl]-phenyl]-amide] | 7.89 | 179 °C | 7.74 |
| O=C(Nc1ccc(N2CCN(Cc3ccc[nH]3)CC2)cc1)c1ccccc1-c1ccc(C(F)(F)F)cc1 [Example 62, 4′-Trifluormethyl-biphenyl-2-carboxylic Acid [4-(4-(1H-pyrrol-2-ylmethyl)-piperazin-1-yl)-phenyl)-amide] | 8.00 |  |  |
| Cc1cccc(C(=O)Nc2ccc(N3CCN(Cc4cccc(C#N)c4)CC3)cc2)c1-c1ccc(C(F)(F)F)cc1 [Example 5, 6-Methyl-4′-trifluoromethyl-biphenyl-2-carboxylic Acid [4-[4-(3-cyano-benzyl)-piperazin-1-yl]-phenyl]-amide] |  | 192 °C | 7.82 |

Source: patent US6552022B1, “Benzamide derivatives and their use as ApoB-100 secretion inhibitors” (SmithKline Beecham Corporation, priority 1998, dated 2003)
